Key:
[1] = system: T lymphocyte cell line Jurkat E6-1; experiment: Cytotoxicity experiment (CCK-8, relative cell survival); format: cell-based; details: 24 hours, untreated cells = 100%
Procedure, shortened: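 Jurkat cells in RPMI-1640 with 10% FBS were exposed to compounds at several concentrations for 24 h at 37 °C, 5% CO2. CCK-8 added for 2 h, absorbance read at 450 nm; survival expressed relative to untreated cells (100%).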

[2] = system: psoriasis mouse animal model; experiment: Psoriasis mouse animal model (imiquimod-induced); format: in vivo, BALB/c mice; details: 40 mg/kg intraperitoneally twice a day
Description: To confirm the therapeutic effect of compounds according to the present invention on psoriasis, a psoriasis animal model was established to evaluate the alleviation of skin lesions and changes in immune cell profiles by administering Compound 69 or Compound 83 via injection.
To establish a psoriasis mouse animal model, BALB/c mice (7 weeks old, 20 g, female) were purchased from Hana Biotech Co. and allowed to acclimate to the housing environment for one week. Afterward, the fur on the dorsal area of the mice was initially shaved using a shaver, followed by complete removal with depilatory cream (Nicrin Cream, comprising thioglycolic acid 80%, manufactured by ILDONG Pharmaceutical CO., LTD). The mice were then housed for 24 hours to confirm any wounds on their backs.
Subsequently, in order to verify the preventive and therapeutic effects of compounds according to the present invention on psoriasis, five experimental groups were established as shown in FIG. 7 and Table 5. From the second to the fifth group, Aldara® cream was applied once daily for two weeks (14 days, total of 14 applications) at a dose of 80 mg (imiquimod, 4 mg) per mouse to induce psoriasis. Furthermore, to compare the preventive and therapeutic effects of compounds according to the present invention (Compound 69 and Compound 83) on psoriasis, 40 mg/kg of the compound per mouse was dissolved in DMSO corresponding to 10% of the dosing volume, and then diluted in a mixture of Cremophor EL-PEG 400-distilled water to achieve a final ratio of DMSO: Cremophor EL:PEG 400:distilled water to 1:1:4:4 (v/v/v/v). Subsequently, the respective injections were intraperitoneally administered at a dose of 100 μL per mouse, twice a day with a 12-hour interval. For the Vehicle control group, injections excluding the drug but comprising the vehicle solution (DMSO: Cremophor EL:PEG 400:distilled water=1:1:4:4 (v/v/v/v)) were administered at a dose of 100 μL per mouse, twice a day with a 12-hour interval.
To assess the impact of each compound on immune cells in vivo, the spleens of mice treated with each compound were harvested, and cells were extracted, and cells were suspended in MACS buffer (2 mM EDTA, 0.5% FBS, 137 mM NaCl, 2.7 mM KCl, 10 mM Na2HPO4, 1.8 mM KH2PO4, Miltenyi Biotech.). For flow cytometry analysis, each mouse's splenocytes were aliquoted at 5×10^5 cells per FACS tube (5 mL round tube, Falcon). To prevent non-specific antibody binding, each tube was treated with 1 μg/mL of anti-mouse CD16/CD32 (InVivoMAb) for 30 minutes, followed by centrifugation at 13,000 rpm for 5 minutes, and resuspended in 100 μL of MACS buffer. Subsequent experiments were conducted depending on the type of immune cells to be examined.
(§1) For B cells, each FACS tube was stained with 1 μg/mL of FITC-conjugated anti-B220 antibody (eBioscience™) at 4° C. for 30 minutes, followed by washing with 2 mL of MACS buffer. Subsequently, each tube was centrifuged at 15,000 rpm for 5 minutes, the supernatant was removed, and the precipitated cells were fixed using 200 μL of 4% paraformaldehyde solution.
For T cells, each FACS tube was stained with 1 μg/mL of PerCP-Cy5.5-conjugated anti-CD3 antibody (Biolegend), FITC-conjugated anti-CD8 antibody (eBioscience™) and Cy7-conjugated anti-CD4 antibody (eBioscience™) at 4° C. for 30 minutes, followed by washing with 2 mL of MACS buffer. Subsequently, each tube was centrifuged at 15,000 rpm for 5 minutes, the supernatant was removed, and the precipitated cells were fixed using 200 μL of 4% paraformaldehyde solution.
as §1, with “macrophages,” for “B cells,”, “anti-CD11b” for “anti-B220”

spleen T cells [3] = experiment: T cell proliferation inhibition (CFSE, FACS), CD3/CD28-activated spleen T cells; format: cell-based, C57BL/6 mice; details: Table 2, 3 days, relative to CD3/CD28+DMSO; for inhibition at 10 µM / inhibition at 30 µM / inhibition at 50 µM: Mus musculus, T-cell, 72 h, read-out: Proliferation inhibition rate (%)
Procedure, shortened: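 CFSE-labelled splenic T cells (CD90.2-isolated, 7-week C57BL/6 mice), 2×10^5/well, activated with anti-CD3/CD28 (0.5 μg/mL each) plus compound at 10, 30 or 50 μM in triplicate for 3 days at 37 °C. CFSE dilution by flow cytometry; inhibition % relative to CD3/CD28+DMSO proliferation.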

spleen T cells [4] = experiment: Cytokine secretion by anti-CD3/CD28-activated T cells (Cytometric Bead Array); format: cell-based, C57BL/6 mice; details: 30 μM; for secretion of IL-2: 24 hours after treatment, FIG. 3; for secretion of IFN-γ / secretion of IL-17A / secretion of TNF-α: 72 hours after treatment
Procedure: To confirm the effect of compounds of the present invention on the secretion of cytokines by T cells, the following experiment was conducted.
Spleens were harvested and minced from C57BL/6 mice at 7 weeks of age, and single cells were isolated using a strainer (40 μm pore size, SPL). Red blood cells were removed using ACK (Ammonium-Chloride-Potassium) lysis buffer to isolate only leukocytes. These were then reacted with 10 v/v % CD90.2 microbeads (130-121-278, Miltenyi Biotech.) at 4° C. for 20 minutes, resulting in the isolation of spleen T cells from magnetic-based purification. The T cells were cultured in a 96-well plate at an amount of 2×10^5 cells/well. For T cell activation, each well was treated with anti-CD3/CD28 antibodies at a concentration of 1 μg/mL. Subsequently, Vehicle (DMSO) and compounds (Compound 14, Compound 19, Compound 26, Compound 31, Compound 35, Compound 40, Compound 41, Compound 56, Compound 69, Compound 75) at a concentration of 30 μM were treated in each well, and it was cultured at 37° C. in a 5% CO2 incubator. After 24 and 72 hours, the T cell culture medium was taken, and centrifugation was performed at 13,000 rpm for 10 minutes to obtain the supernatant.
To measure the concentration of cytokines present in the T cell culture medium, Mouse Th1/Th2/Th17 Cytokine CBA Kit (Cytometric Bead Array kit) 560485 from BD Science was utilized for flow cytometry analysis. The secretion levels of IL-2 at 24 hours after each drug treatment, and IFN-γ, TNF-α, and IL-17A at 72 hours were measured after each drug treatment.

[5] = flow cytometry, versus psoriasis groups, FIG. 10

| SMILES | Relative cell survival rate (%) ([1]; 10 μM) | Relative cell survival rate (%) ([1]; 20 μM) | Relative cell survival rate (%) ([1]; 30 μM) | Relative cell survival rate (%) ([1]; 50 μM) | skin lesions (erythema, thickness, exfoliation of back skin) ([2]; 14 days, FIG. 8) | hyperkeratosis, parakeratosis, irregular acanthosis, infiltration of inflammatory cells (H&E staining) ([2]; 14 days, FIG. 9) | proportion of B cells in the spleen [2, 5] | proportion of CD11b granulocytes in the spleen [2, 5] | proportion of T cells in the spleen [2, 5] | inhibition at 10 µM (spleen T cells [3]; 10 μM) | inhibition at 30 µM (spleen T cells [3]; 30 μM) | inhibition at 50 µM (spleen T cells [3]; 50 μM) | Proliferation inhibition rate (%) (spleen T cells [3]; 10 μM) | Proliferation inhibition rate (%) (spleen T cells [3]; 30 μM) | Proliferation inhibition rate (%) (spleen T cells [3]; 50 μM) | secretion of IL-2 (spleen T cells [4]) | secretion of IFN-γ (spleen T cells [4]) | secretion of IL-17A (spleen T cells [4]) | secretion of TNF-α (spleen T cells [4]) |
| --- | --- | --- | --- | --- | --- | --- | --- | --- | --- | --- | --- | --- | --- | --- | --- | --- | --- | --- | --- |
| O=C(NCCCCCCCCCCCCO)c1ccccc1Br [Compound 83] | 102% | 105% | 87% | 77% | either minimally present or hardly observed | either minimally present or hardly observed | increase | decreased | increase | 0% | 63% | 100% |  |  |  |  |  |  |  |
| CCCCCCCCCCCCNS(=O)(=O)c1c(C)cc(C)cc1C [Compound 41] | 85% | 83% | 82% | 80% |  |  |  |  |  |  |  |  | 80% | 100% | 100% | significant decrease | significant decrease | significant decrease | significant decrease |
| CCCCCCCCCCCCNS(=O)(=O)c1c(Cl)cccc1Cl [Compound 40] | 105% | 99% | 96% | 86% |  |  |  |  |  |  |  |  | 86% | 97% | 97% | significant decrease | significant decrease | significant decrease | significant decrease |
| CC(C)=CCC/C(C)=C/CNC(=O)c1cccnc1N [Compound 75] | 97% | 95% | 86% | 85% |  |  |  |  |  | 95% | 98% | 98% |  |  |  | significant decrease | significant decrease | significant decrease | significant decrease |

— patent publication US20250296909A1, “NOVEL BENZENE DERIVATIVE AND IMMUNOSUPPRESSION-RELATED USE THEREOF” (PROVIBIO CO., LTD., priority 2021, published 2025)
